“Also recorded” adds a separate entry of the source. Structures can show the parent of a compound that is named as a salt.
What was measured:
BDNF-NLuc [1] = assay: LOPAC library screening, NLuc activity in cultured Bdnf^NLuc/+ neurons (HTS); format: cell-based, mouse; details: 24 hours; for hit: NLuc activity in neurons increased to more than 3× standard deviations over the mean: LOPAC compounds 10 μM, DIV7 neurons, FIGS. 5A-5D; for hit status in repeat screening with 4 different plates of cultured neurons (FIG. 5D): different batch of neurons
Experimental: We tested the scalability of the Bdnf^NLuc/+ phenotypic assay by screening the 1280-compound Library of Pharmacologically Active Compounds (LOPAC). We dissected out cortices and hippocampi of 8 Bdnf^NLuc/+ embryos at E18.5 from 2 timed pregnant mice, prepared a suspension of dissociated neurons (10,000 cells/80 μl), transferred 40 ml of the suspension into each of eight 50-ml Falcon centrifuge tubes, used the liquid handling device to plate cells from each aliquot of 40-ml cell suspension onto a 384-well plate (80 μl/well), and cultured neurons.
Using 2 sets of 4 plates each of DIV7 neuronal cultures, we removed 20 μl of medium from each well and then added each LOPAC compound in 20 μl of fresh medium to a well to reach a final concentration of 10 μM. LOPAC compounds (320) were added to wells in the middle 20 columns of each plate, while the first 2 and last 2 columns were used for vehicle controls and positive controls. After 24 hours of incubation, we inverted plates to dump culture medium and then measured NLuc activity in neurons. The NLuc activity in each well is normalized to the average of NLuc activities in 1280 compound-containing wells. […] Compounds that increased the NLuc activity to more than 3× standard deviations (3×SDs) over the mean were considered a hit, and in this case, there are 7 hits in the first set of plates (FIG. 5A) and 10 hits in the second set of plates (FIG. 5B), 7 of which are shared. When the average of duplicate assays for each compound is plotted, we identify the same hits from the second set of plates, with the exception of hit 8 (FIG. 5C). To test the repeatability of the assay in different batches of cultured neurons, we repeated the screening with 4 different plates of cultured neurons.
(§1) Compound treatment and LOPAC library screening. Compound treatment or library screening in primary cultures of Bdnf^NLuc/+ mouse neurons on day 7 in vitro (DIV7) was performed by replacing one-quarter of the culture medium with equal volume of compound-containing medium to yield the desired final concentration for each compound. For the library of pharmacologically active compounds (LOPAC, Millipore), compounds in the original source plates were first dosed using a pintool into 384-well plates containing feeding medium to create a secondary source plate with compounds at 40 μM using the Beckman Coulter's Biomek NXP automated liquid handler (Beckman). 1.6% DMSO and 40 μM (+)-Bay K8644 (Sigma) were added to the first two and the last two columns of the secondary source plate as vehicle and positive control, respectively. Compounds in the secondary source plates were then added to culture neurons in the 384-well plates using a Versette liquid handler. Neurons were treated with compounds for 24 hours in a humidified incubator set to 37° C. and 5% CO2. Luciferase activity was detected the next day using Nano-Glo Luciferase Assay System (Promega) according to the manufacturer's instruction. Luminescence intensity was measured using a microplate reader (FLUOstar Omega, BMG LABTECH) at 460 nm.

Bdnf gene expression = details: cited from earlier work; for Bdnf gene expression: literature reports, no concentration given
BDNF-NLuc [2] = assay: NLuc activity (BDNF-NLuc levels) in cultured Bdnf^NLuc/+ neurons and media after compound treatment; format: cell-based, mouse
Experimental: We tested our assay for suitability for HTS by using two positive controls. […] The assay produces a good Z′ for both 10 mM KCl and 10 μM DM (FIGS. 4A-4C) (Zhang et al., 1999). To measure NLuc activities in cells, we can simply invert a plate to dump culture medium and then add the Promega Nano-Glo mix, whereas we must transfer a certain amount of culture medium to a new plate and then add the Promega Nano-Glo mix to measure NLuc activities in media.
Primary cortical/hippocampal cell culture and maintenance. Brains of E18.5 Bdnf^NLuc/+ embryos were collected and placed in ice-cold Ca^2+ and Mg^2+ free Hanks' balanced salt solution (HBSS) supplemented with Penicillin-Streptomycin (Pen/Strep, 50 U/mL, Gibco), 25 mM D-glucose, 1 mM pyruvate, and 20 mM HEPES. Cortices and hippocampi were isolated and digested with papain (~12 U/mL, Worthington) at 37° C. for 20 min. Brain tissues were washed with media containing Neurobasal (Gibco), 4% fetal bovine serum (FBS, HyClone), and Pen/Strep. The tissue was gently triturated and allowed to settle, and the supernatant was filtered through a 40 μm cell strainer. Cells were centrifuged at 420×g for 4 min and resuspended in plating media [Neurobasal, 2% FBS, 2% B27 (Gibco), 2 mM GlutaMAX (Gibco), and Pen/Strep]. 1.0×10^4 or 4.5×10^4 cells were plated onto white Greiner μClear 384-well plate (80 μl/well) or PDL-coated 96-well plate (200 μl/well), respectively. Sixteen hours after plating, 75% of the plating media was replaced by feeding media [Neurobasal, 2% B27, 2 mM GlutaMAX, and Pen/Strep] supplemented with 16 μM 5-fluoro-2′-deoxyuridine (FUdR) to prevent overgrowth of non-neuronal cells. Plating and media changes were performed using a Versette liquid handler (Thermo Fisher Scientific) or an 8-channel pipette for the 384-well and 96-well plates, respectively. Cells were maintained at 37° C. and 5% CO2 incubator.
as §1

Bdnf mRNA = assay: qRT-PCR of Bdnf mRNA and Bdnf mRNA variants in DIV7 Bdnf^NLuc/+ neurons; format: cell-based, mouse; details: 5 μM, 24 hours
Experimental: We treated DIV7 Bdnf^NLuc/+ neurons in a 24-well plate with 5 μM GR127935-HCl for 24 hours, isolated total RNA from cultured cells in each well, and ran quantitative RT-PCR (qRT-PCR) to determine levels of total Bdnf mRNA (coding), as well as four major Bdnf mRNA variants (exon 1, exon 2, exon 4, and exon 6).
qRT-PCR validation of HTS hit. DIV7 Bdnf^NLuc/+ neurons were treated in a 24-well plate with 5 μM GR127935-HCl for 24 hours, after which total RNA was isolated from cultured cells in each well and used to perform quantitative RT-PCR (qRT-PCR) to determine the levels of total Bdnf mRNA (coding), as well as four major Bdnf mRNA variants (exon 1, exon 2, exon 4, and exon 6). Levels of Bdnf mRNA variants were quantified using qRT-PCR with 18S rRNA as the internal control.

[3] = tested on: protein transport from the ER to the Golgi complex; details: Helms and Rothman, 1992; cited from earlier work
[4] = KCl 10 mM added DIV7, measured DIV8 (24 hours)
[5] = DM 2-10 μM added DIV7, measured DIV8, listed as DM

| SMILES | hit: NLuc activity in neurons increased to more than 3× standard deviations over the mean (BDNF-NLuc [1]) | hit status in repeat screening with 4 different plates of cultured neurons (FIG. 5D) (BDNF-NLuc [1]; 10 μM) | Bdnf gene expression (Bdnf gene expression) | also measured |
| --- | --- | --- | --- | --- |
| C#CCN1C(C)=C(C(=O)OC)C(c2cccc([N+](=O)[O-])c2)C(C(=O)OCC)=C1C (stereo not shown) [N-propargyl nitrendipine] | hits and above dotted line |  |  |  |
| CCCc1c(-c2ccc(O)cc2)nn(-c2ccc(O)cc2)c1-c1ccc(O)cc1 [1,3,5-Tris(4-hydroxyphenyl)-4-propyl-1H-pyrazole] | above dotted line | rediscovered |  | hit: NLuc activity in neurons increased to more than 3× standard deviations over the mean (BDNF-NLuc [1]; listed as PPT): hits |
| CCCCCCCCCCCCCC(=O)O[C@@H]1[C@@H](C)[C@@]2(O)[C@@H](C=C(CO)C[C@]3(O)C(=O)C(C)=C[C@@H]23)[C@@H]2C(C)(C)[C@]12OC(C)=O [phorbol-12-myristate 13-acetate] | hits and above dotted line | just under the threshold |  | effect on Bay K8644-induced Bdnf gene expression (Bdnf gene expression; Zafra et al., 1992): enhance the effect of Bay K8644 on Bdnf gene expression |
| COc1ccc(-c2ccc(=N)n(CCCC(=O)O)n2)cc1 [gabazine] | above dotted line |  |  | hit status on the average of duplicate assays (FIG. 5C) (BDNF-NLuc [1]; 10 μM, average of 2 sets of plates): exception |
| COC(=O)C1=C(C)NC(C)=C([N+](=O)[O-])C1c1ccccc1C(F)(F)F (stereo not shown) [Bay K8644] | hits and above dotted line | rediscovered | stimulates Bdnf gene expression | BDNF levels (NLuc activity) (BDNF-NLuc [2]; Bay K8644 10 μM, DIV7, 24 hours, 3 batches of cultured neurons): increased BDNF levels |
| COc1ccc(NC(=O)c2ccc(-c3ccc(-c4noc(C)n4)cc3C)cc2)cc1N1CCN(C)CC1 [GR127935-HCl] | above dotted line | rediscovered |  | Bdnf mRNA variant exon 1 (Bdnf mRNA): stimulating transcription; Bdnf mRNA variant exon 2 (Bdnf mRNA): stimulating transcription; Bdnf mRNA variant exon 4 (Bdnf mRNA): stimulating transcription; total Bdnf mRNA (coding) levels (Bdnf mRNA; 18S rRNA internal control): elevated Bdnf mRNA levels; hit: NLuc activity in neurons increased to more than 3× standard deviations over the mean (BDNF-NLuc [1]; listed as GR127935 hydrochloride hydrate): hits |
| [Cl-].[K+] [KCl] |  |  | stimulates Bdnf gene expression | levels of BDNF-NLuc in media (NLuc activity) (BDNF-NLuc [2]; [4]): elevated; also recorded: increased; levels of BDNF-NLuc in neurons (NLuc activity) (BDNF-NLuc [2]; [4]): elevated; also recorded: increased; Bdnf gene expression in cultured neurons (Bdnf gene expression; KCl 50 mM for 90 min (Ghosh et al., 1994; Tao et al., 2002)): increases Bdnf gene expression |
| CCC(C)N(C)C(=O)c1cc2ccccc2c(-c2ccccc2Cl)n1 (stereo not shown) [PK11195] | above dotted line |  |  |  |
| C[C@H]1CCC/C=C/[C@@H]2C[C@H](O)C[C@H]2[C@H](O)/C=C/C(=O)O1 [brefeldin A] | hits and above dotted line | rediscovered |  | protein transport from the ER to the Golgi complex [3]: inhibit protein transport from the ER to the Golgi complex |
| CC1(C)[C@H](C(=O)O[C@H](C#N)c2cccc(Oc3ccccc3)c2)[C@@H]1C=C(Br)Br [deltamethrin] |  |  | stimulate Bdnf gene expression | levels of BDNF-NLuc in media (NLuc activity) (BDNF-NLuc [2]; [5]): stimulated BDNF production; also recorded: increased; levels of BDNF-NLuc in neurons (NLuc activity) (BDNF-NLuc [2]; [5]): stimulated BDNF production; also recorded: increased |

— US20260231914A1, “BRAIN-DERIVED NEUROTROPHIC FACTOR-NANO LUCIFERASE TRANSGENIC RODENTS AND METHODS OF USE THEREOF” (University of Florida Research Foundation, Incorporated, priority 2023, published 2026)
